Experimental findings from article PMC3404088, “Development of a Small D-Enantiomeric Alzheimer’s Amyloid-β Binding Peptide Ligand for Future In Vivo Imaging Applications” (PLoS ONE, 2012) are described below.

In test [1] the target is T1, Aβ1–42 fibrils (Homo sapiens, UniProt P05067).
T1 construct: Aβ1–42 was dissolved in hexafluoroisopropanol (HFIP)
The experiment in a line: Surface plasmon resonance (Biacore 1000), semi-quantitative binding to immobilized Aβ1–42 fibrils. The note with it: 50 µg/ml, PBS pH 7.4. As for the experimental part: Aβ1–42 was dissolved in hexafluoroisopropanol (HFIP). After overnight incubation, HFIP was removed by evaporation. The Aβ1–42 film was dissolved in PBS buffer pH 7.4 to a concentration of 1 mg/ml and incubated for 7 days at 37°C. For the measurements, a Biacore 1000 (GE Healthcare) instrument was used. Aβ1–42 fibrils (6800 RU) were immobilized on a CM5 sensorchip (GE Healthcare) via amine coupling. The running and sample buffer was PBS, pH 7.4. To allow comparison between the ACI-80 compounds, but to avoid potential over-interpretation of the data by fitting multiple k on and k off values for a yet undefined number of different binding sites, only two values have been taken for further evaluation. Response units achieved under identical injection conditions allow comparison of binding strengths of the compounds. Dissociation rates among the compounds have been compared by measuring the remaining response units 60 s after end of injection as a measure for dissociation (k off). All measurements have been carried out using the same flow cells with identical concentrations and injection conditions. ACI-80-Kϕ derivatives were injected as analytes in a concentration of 50 µg/ml at a flow rate of 5 µl/min for 2 minutes at ambient temperature. The data were evaluated using BiaEvaluation 4.1. The interactions between Aβ1–42 and ACI-80-Kϕ derivatives are given in resonance units (RU) and in % of ACI-80-Kϕ response units. […] Aβ1–42 fibrils were immobilized on a Biacore sensor-chip as described in the methods section, and the interactions of the ϕ-labeled ACI-80 derivatives were measured and compared with original ACI-80-Kϕ. […] Therefore we decided for semi-quantitative comparison between all compounds only. The maximal responses in resonance units (RU) of the ϕ-labeled ACI-80 derivatives during the analyte injection and the remaining response 60 s after injection end (as a semi-quantitative measure for the dissociation rate), have been related to the respective values obtained from identical concentrations of ACI-80-Kϕ in percent.
(Surface plasmon resonance follows binding to a sensor surface in real time, without labels.)

For the next test, the target named is T2, Aβ1–42 monomers (Homo sapiens, UniProt P05067).
T2 construct: Aβ1–42 peptide film was prepared from lyophilized powder (Bachem); purchased Bachem
Put plainly: ELISA, compound binding to Aβ1–42 peptide film (predominantly monomers). The settings on record: 10 µg/ml compound; for binding value, binding Aβ1–42 monomers: optical density after pNPP incubation. As for the experimental part: (§1) Aβ1–42 peptide film was prepared from lyophilized powder (Bachem). The powder was reconstituted in HFIP to a final concentration of 1 mM, sonicated for 15 min at room temperature (RT), agitated overnight (ON), and aliquoted into non-siliconized microcentrifuge tubes (12 µl corresponding to 55 µg). The HFIP was evaporated under a stream of argon. The resulting peptide film was vacuum dried for 10 min and stored at -80°C. For direct use as peptide film, an aliquot of Aβ1–42 peptide film was reconstituted with 0.54% dimethylsulphoxide (DMSO) in phosphate buffered saline (PBS) to obtain a final concentration of 10 µg/ml and then used for the ELISA as described below. To prepare fibrils, 55 µg aliquot of peptide film was dissolved in 55 µl of 50 mM Tris-HCl, pH 7.4 and incubated at 37°C for five days. Next, the sample was centrifuged (10’000 rpm for 5 min) and the pellet was diluted in 50 mM Tris-HCl, pH 7.4.
(§2) Aβ1–42 peptide preparations were diluted in 0.05 M bicarbonate-carbonate buffer pH 9.6, to the final concentration of 10 µg/ml and coated onto ELISA plates (MaxiSorp, Nunc). After blocking (PBS; 0.05% Tween; 1% BSA), plates were incubated with 2- or 3-fold dilutions of D-compounds (starting concentration: 10 µg/ml) and incubated for 2 h at 37°C. Plates were then washed and incubated for 2 h at 37°C with the detection antibody Rabbit-a-fluorescein isothiocyanate-AP (Sigma; 1∶10’000 dilution) followed by the incubation for 2.5 h at room temperature (RT) with 1 mg/ml of phosphatase substrate (pNPP, Sigma). The absorbance signal was read at 405 nm wavelength using a Tecan plate reader (Tecan Group Lt, Männedorf, Switzerland).
(§3) ELISA plates (MaxiSorp, Nunc) were coated with anti-Aβ antibody 6E10 (Covance) at a concentration of 5 µg/ml. Either monomeric Aβ1–42 peptide film (mainly monomeric) or Aβ1–42 fibrils, which were prepared as described above, were diluted in PBS to the final concentration 10 µg/ml and mixed with 10-fold dilutions of D-peptide compounds in Eppendorf tubes (starting concentration of D-peptide compounds: 10 µg/ml). The tubes were incubated for 2 h at 37°C. Next, samples were distributed onto the ELISA plate and kept for 2 h at 37°C. Plates were washed and incubated for 2 h at 37°C with the detection antibody Rabbit-a-fluorescein isothiocyanate-AP (Sigma; 1∶10′000 dilution) following the incubation overnight (ON) at RT with 1 mg/ml of phosphatase substrate (pNPP, Sigma). The absorbance signal was read at 405 nm wavelength using the Tecan plate reader (Tecan Group Ltd, Männedorf, Switzerland).
(§4) To verify the SPR results, ELISA was employed to assay the interaction of the ACI-80 derivatives ACI-80-Kϕ, ACI-81-Kϕ, ACI-82-Kϕ, ACI-83-Kϕ, ACI-84-Kϕ, ACI-85-Kϕ, ACI-86-Kϕ, ACI-87-Kϕ, [^19F]-ACI-87-Kϕ, ACI-88-Kϕ, [^19F]-ACI-88-Kϕ, ACI-89-Kϕ, [^19F]-ACI-89-Kϕ) with Aβ1–42 fibrils and Aβ peptide film in solution containing mostly monomers and smaller oligomers (Table 4). To avoid any bias by possible conformational influences the ELISA has been carried out in two versions, once with immobilized antibody and once with immobilized Aβ1–42 as described in the methods section. Both assays yielded similar results and confirmed each other. […] Panels A and B in Figure 2 show the results for binding to Aβ1–42 fibrils and panels C and D in Figure 2 show the results for binding to freshly prepared Aβ1–42 peptide film, which contains mostly monomeric Aβ. In Table 4, the performance of the peptides is expressed relative to that of ACI-80-Kϕ.

Test [2] deals with T3, Aβ plaques in brain sections of transgenic APP (V717I) x PS1 (A246E) mice (Homo sapiens, UniProt P05067).
T3 construct: triple image overlay of respective stains reveal that the ϕ-compounds identify plaques; from tissue; host or cells: brain cryosections of APP (V717I) x PS1 (A246E) transgenic mice
The experiment in a line: Ex vivo staining of mouse brain slices by FITC labeled compounds. The note with it: 0.01 mg/ml ϕ-labeled compound, 2 h; 10 µm cryostat sections; fluorescence microscopy. The protocol:
In vitro tissue section staining was performed according to previously described protocols with slight modifications. Mouse brains were obtained from male transgenic (tg) APP (London mutation V717l) x PS1 (A246E) mice aged 13–21 months and from female wild type (wt) mice aged 9–10 months. The mice were anesthetized and transcardially perfused with saline. The brains were removed and snap frozen. 10 µm thick sagittal cryostat sections through the whole mouse brain were produced and mounted onto glass slides. ϕ-labeled compounds were applied to investigate binding. Thus, the slides were thawed, washed in PBS and fixed in 4% paraformaldehyde (20 min at RT) just before incubation with ϕ-labeled compounds. One series of sections was treated only with fluorescent compounds (0.01 mg/ml, incubation time 2 h) while another series of sections were incubated with anti-Aβ antibody 6E10 at 1∶500 dilution (SIG-39320, Covance; final antibody concentration was 2 µg/ml) in addition to ϕ-labeled compounds (0.01 mg/ml). The slices were washed in PBS. The sections incubated with ϕ-labeled compound and 6E10 antibody were further incubated for 2 h at RT with Goat-anti-Mouse IgG1– AlexaFluor 555 (A21127, Invitrogen, 1∶1000 dilution) and washed with PBS. Finally, all sections were counterstained with 4’–6-Diamidino-2-phenylindole (DAPI, 32670, Sigma, incubation 5 min at RT) for the visualization of cell nuclei. The slides were mounted using Prolong Gold Antifade mounting medium (P36930, Invitrogen) and coverslipped.
The tissues were analyzed using a fluorescent Zeiss Axioscope 2 Plus microscope using the AxioVision 4 image analysis software.
A further series of slices was stained using a primary anti-fluorescein isothiocyanate antibody combined with alkaline phosphatase reaction for visualization of ϕ-labeled peptides. Briefly, the sections were treated with blocking solution (10% normal goat serum (NGS), 0.25% Triton X-100 in PBS for 1 h at RT) and incubated with primary antibody (rabbit-anti-FITC; Invitrogen) at a dilution of 1∶500. The sections were then washed and incubated for 2 h at RT with the secondary antibody goat-anti-rabbit-alkaline phosphatase (Sigma) at a dilution of 1∶100. After washing, the slides were incubated with BCIP/NBT substrate (Sigma) for 3 min, washed, dehydrated and mounted using Eukitt mounting medium.

Test [3] concerns the target T1, Aβ1–42 fibrils. The experiment in a line: ELISA, compound binding to Aβ1–42 fibrils. The note with it: for binding value, binding Aβ1–42 fibrils: optical density after pNPP incubation. The protocol:
as §1, §2, §3, §4
In general terms: In an ELISA, binding on a coated surface is turned into a signal by an enzyme label.

Setting [4] is: value of one single experiment only.
The mark [5] stands for this setting: 10 µg/ml compound, value of one single experiment only.

Turning to “QSHYRHISPAQKK[^19F]ϕ [[^19F]-ACI-87-Kϕ, fluorinated ϕ-labeled ACI-87]”, the “SPR response as compared to ACI-80-Kϕ” value at Aβ1–42 fibrils [1] is “decreased response in comparison to the compound without label”. Further, the “binding value, binding Aβ1–42 monomers” value at Aβ1–42 monomers (setting [4]) is listed as “*0.86”. The “staining / recognition of Aβ plaques” value in test [2] is “readily recognized amyloid plaques”. Moreover, the “ELISA binding to Aβ1–42” value on Aβ1–42 fibrils [3] is reported as “bound well to Aβ1–42 fibrils”. For the same substance, the “binding value, binding Aβ1–42 fibrils” value on Aβ1–42 fibrils [3] (setting [5]) was “*1.26”.

For the substance “SHYRHISPAQKK[^19F]ϕ [[^19F]-ACI-88-Kϕ, fluorinated ϕ-labeled ACI-88]”, the “off-rate based on remaining response 60 s after injection end” value at Aβ1–42 fibrils [1] was “slowest off-rate of all tested compounds”. For the same substance, at Aβ1–42 monomers (setting [4]), the “binding value, binding Aβ1–42 monomers” value is reported as “*1.05”. Further, the “staining / recognition of Aβ plaques” value in test [2] is on record as “readily recognized amyloid plaques”. In addition, the “ELISA binding to Aβ1–42” value at Aβ1–42 fibrils [3] is given as “bound well to Aβ1–42 fibrils”. The “binding value, binding Aβ1–42 fibrils” value on Aβ1–42 fibrils [3] (setting [5]) is “*1.76”.

On to “ZSHYRHISPAQVKϕ [ACI-81-Kϕ, ϕ-labeled ACI-80 derivative, Q1Z]”, for which the “SPR response as compared to ACI-80-Kϕ” value at Aβ1–42 fibrils [1] is recorded as “not significantly increased”. Also, at Aβ1–42 monomers (ACI-80-Kϕ = 100), the “% binding relative to ACI-80-Kϕ, Aβ1–42 monomers” value was found to be 27%. Further, the “binding value, binding Aβ1–42 monomers” value on Aβ1–42 monomers (average of two or three experiments) amounted to 0.13. Also, the “% binding relative to ACI-80-Kϕ, Aβ1–42 fibrils” value on Aβ1–42 fibrils [3] (10 µg/ml compound, ACI-80-Kϕ = 100) was 22%. Also, the “binding value, binding Aβ1–42 fibrils” value on Aβ1–42 fibrils [3] (10 µg/ml compound, average of two or three experiments) is reported as 0.20.
